# Assay results taken from patent US20240409585A1, “MACROCYCLIC IMMUNOMODULATORS” (priority 2021, published 2024).
# Bridge positions count the residues as written; N and C are the ends. Square brackets hold non-standard residues; d marks the D form. Peptide text beside a SMILES is read from it. * marks the point of attachment. Tyr(3-NO2) = N[C@@H](Cc1ccc(O)c([N+](=O)[O-])c1)C(=O)O; Phe(4-COOH) = N[C@@H](Cc1ccc(C(=O)O)cc1)C(=O)O; Bip = N[C@@H](Cc1ccc(-c2ccccc2)cc1)C(=O)O; Bta = N[C@@H](Cc1csc2ccccc12)C(=O)O; 3Pal = N[C@@H](Cc1cccnc1)C(=O)O; 4Pal = N[C@@H](Cc1ccncc1)C(=O)O; Carboxymethyl = O=C(O)C*; NMeA = CN[C@@H](C)C(=O)O; Orn = NCCC[C@H](N)C(=O)O; Dab = NCC[C@H](N)C(=O)O
# Target: T1, PE-labeled human PD-L1-Ig binding to Jurkat cell line over-expressing human PD-1 (Jurkat-PD-1) (Homo sapiens, UniProt Q15116)
# T1 construct: expressed in transfected cells; host or cells: Jurkat
# T1 sequence (Q15116 25-288): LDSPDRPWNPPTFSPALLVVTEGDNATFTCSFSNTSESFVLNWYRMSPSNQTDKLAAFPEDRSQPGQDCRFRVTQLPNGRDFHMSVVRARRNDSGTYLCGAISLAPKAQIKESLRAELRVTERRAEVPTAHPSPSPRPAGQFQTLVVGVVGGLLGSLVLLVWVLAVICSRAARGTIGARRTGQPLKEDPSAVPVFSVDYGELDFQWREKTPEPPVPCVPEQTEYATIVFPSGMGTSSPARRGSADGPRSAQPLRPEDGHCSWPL
# Assay: Jurkat-PD-1 Cell Binding High-Content Screening Assay (CBA): Method 1
# Details: Jurkat-hPD-1 cells, PE-labeled PD-L1-Ig 20 nM final; read-out: Jurkat HPDL1 PD1 IC50 (uM) (Method 1)
row,SMILES,IC50
1,CC(C)C[C@@H]1NC(=O)[C@H](CCN)NC(=O)[C@@H](CC(C)C)NC(=O)[C@H](C)N(C)C(=O)[C@H](CCCNC(=N)N)NC(=O)[C@H](Cc2ccc(-c3ccccc3)cc2)NC(=O)[C@H](C(C)C)NC(=O)[C@H](Cc2c[nH]c3ccccc23)NC(=O)[C@H](CC(=O)O)NC(=O)[C@H](Cc2cnc[nH]2)NC(=O)[C@H](CC(N)=O)NC(=O)CSC[C@@H](C(=O)N[C@@H](C)C(N)=O)NC(=O)[C@H]([C@@H](C)O)NC(=O)[C@H](C(C)C)NC1=O [Compound 1137] ({CH2CO}-NHDWV[Bip]R[NMeA][dL][Dab]LVTCA-NH2; thioether N-14),0.27 µM
2,CC(C)C[C@@H]1NC(=O)[C@H](CCN)NC(=O)[C@@H](CC(C)C)NC(=O)[C@H](C)N(C)C(=O)[C@H](CCCNC(=N)N)NC(=O)[C@H](Cc2ccc(-c3ccccc3)cc2)NC(=O)[C@H](C(C)C)NC(=O)[C@H](Cc2c[nH]c3ccccc23)NC(=O)[C@H](CC(=O)O)NC(=O)[C@H](Cc2ccc(OCC(=O)O)cc2)NC(=O)[C@H](CC(N)=O)NC(=O)CSC[C@@H](C(=O)N[C@@H](C)C(N)=O)NC(=O)[C@H]([C@@H](C)O)NC(=O)[C@H](C(C)C)NC1=O [Compound 1138] ({CH2CO}-NY(Carboxymethyl)DWV[Bip]R[NMeA][dL][Dab]LVTCA-NH2; thioether N-14),0.07 µM
3,CC(C)C[C@@H]1NC(=O)[C@H](CCCN)NC(=O)[C@@H](CC(C)C)NC(=O)[C@H](C)N(C)C(=O)[C@H](CCCNC(=N)N)NC(=O)[C@H](Cc2ccc(-c3ccccc3)cc2)NC(=O)[C@H](C(C)C)NC(=O)[C@H](Cc2c[nH]c3ccccc23)NC(=O)[C@H](CC(=O)O)NC(=O)[C@H](Cc2ccc(C(=O)O)cc2)NC(=O)[C@H](CC(N)=O)NC(=O)CSC[C@@H](C(=O)N[C@@H](C)C(N)=O)NC(=O)[C@H]([C@@H](C)O)NC(=O)[C@H](C(C)C)NC1=O [Compound 1139] ({CH2CO}-N[Phe(4-COOH)]DWV[Bip]R[NMeA][dL][Orn]LVTCA-NH2; thioether N-14),0.06 µM
4,CC(C)C[C@@H]1NC(=O)[C@H](CCN)NC(=O)[C@@H](CC(C)C)NC(=O)[C@H](C)N(C)C(=O)[C@H](CCCNC(=N)N)NC(=O)[C@H](Cc2ccc(-c3ccccc3)cc2)NC(=O)[C@H](C(C)C)NC(=O)[C@H](Cc2c[nH]c3ccccc23)NC(=O)[C@H](CC(=O)O)NC(=O)[C@H](Cc2cnc[nH]2)NC(=O)[C@H](Cc2cnc[nH]2)NC(=O)CSC[C@@H](C(=O)N[C@@H](C)C(N)=O)NC(=O)[C@H]([C@@H](C)O)NC(=O)[C@H](C(C)C)NC1=O [Compound 1142] ({CH2CO}-HHDWV[Bip]R[NMeA][dL][Dab]LVTCA-NH2; thioether N-14),0.24 µM
5,CC(C)C[C@@H]1NC(=O)[C@H](CCN)NC(=O)[C@H](Cc2csc3ccccc23)NC(=O)[C@H](C)N(C)C(=O)[C@H](CCC(=O)O)NC(=O)[C@H](Cc2ccc(-c3ccccc3)cc2)NC(=O)[C@H](C(C)C)NC(=O)[C@H](Cc2c[nH]c3ccccc23)NC(=O)[C@H](CC(=O)O)NC(=O)[C@H](Cc2ccc(O)cc2)NC(=O)[C@H](Cc2ccccc2)NC(=O)CSC[C@@H](C(=O)N[C@@H](C)C(N)=O)NC(=O)[C@H]([C@@H](C)O)NC(=O)[C@H](C(C)C)NC1=O [Compound 1143] ({CH2CO}-FYDWV[Bip]E[NMeA][Bta][Dab]LVTCA-NH2; thioether N-14),0.24 µM
6,CC(C)C[C@@H]1NC(=O)[C@H](CCCN)NC(=O)[C@@H](CC(C)C)NC(=O)[C@H](C)N(C)C(=O)[C@H](CCCNC(=N)N)NC(=O)[C@H](Cc2ccc(-c3ccccc3)cc2)NC(=O)[C@H](C(C)C)NC(=O)[C@H](Cc2c[nH]c3ccccc23)NC(=O)[C@H](CC(=O)O)NC(=O)[C@H](Cc2ccc(O)cc2)NC(=O)[C@H](Cc2cnc[nH]2)NC(=O)CSC[C@@H](C(=O)N[C@@H](C)C(N)=O)NC(=O)[C@H]([C@@H](C)O)NC(=O)[C@H](C(C)C)NC1=O [Compound 1144] ({CH2CO}-HYDWV[Bip]R[NMeA][dL][Orn]LVTCA-NH2; thioether N-14),0.05 µM
7,CC(C)C[C@@H]1NC(=O)[C@H](CCN)NC(=O)[C@@H](CC(C)C)NC(=O)[C@H](C)N(C)C(=O)[C@H](CCCNC(=N)N)NC(=O)[C@H](Cc2ccc(-c3ccccc3)cc2)NC(=O)[C@H](C(C)C)NC(=O)[C@H](Cc2c[nH]c3ccccc23)NC(=O)[C@H](CC(=O)O)NC(=O)[C@H](Cc2ccncc2)NC(=O)[C@H](CC(N)=O)NC(=O)CSC[C@@H](C(=O)N[C@@H](C)C(N)=O)NC(=O)[C@H]([C@@H](C)O)NC(=O)[C@H](C(C)C)NC1=O [Compound 1146] ({CH2CO}-N[4Pal]DWV[Bip]R[NMeA][dL][Dab]LVTCA-NH2; thioether N-14),0.06 µM
8,CC(C)C[C@@H]1NC(=O)[C@H](CCCN)NC(=O)[C@@H](CC(C)C)NC(=O)[C@H](C)N(C)C(=O)[C@H](CCCNC(=N)N)NC(=O)[C@H](Cc2ccc(-c3ccccc3)cc2)NC(=O)[C@H](C(C)C)NC(=O)[C@H](Cc2c[nH]c3ccccc23)NC(=O)[C@H](CC(=O)O)NC(=O)[C@H](Cc2ccc(OCC(=O)O)cc2)NC(=O)[C@H](Cc2cnc[nH]2)NC(=O)CSC[C@@H](C(=O)N[C@@H](C)C(N)=O)NC(=O)[C@H]([C@@H](C)O)NC(=O)[C@H](C(C)C)NC1=O [Compound 1148] ({CH2CO}-HY(Carboxymethyl)DWV[Bip]R[NMeA][dL][Orn]LVTCA-NH2; thioether N-14),0.05 µM
9,CC(C)C[C@@H]1NC(=O)[C@H](CCCN)NC(=O)[C@@H](CC(C)C)NC(=O)[C@H](C)N(C)C(=O)[C@H](CCCNC(=N)N)NC(=O)[C@H](Cc2ccc(-c3ccccc3)cc2)NC(=O)[C@H](C(C)C)NC(=O)[C@H](Cc2c[nH]c3ccccc23)NC(=O)[C@H](CC(=O)O)NC(=O)[C@H](Cc2ccc(C(=O)O)cc2)NC(=O)[C@H](Cc2cnc[nH]2)NC(=O)CSC[C@@H](C(=O)N[C@@H](C)C(N)=O)NC(=O)[C@H]([C@@H](C)O)NC(=O)[C@H](C(C)C)NC1=O [Compound 1149] ({CH2CO}-H[Phe(4-COOH)]DWV[Bip]R[NMeA][dL][Orn]LVTCA-NH2; thioether N-14),0.07 µM
10,CC(C)C[C@@H]1NC(=O)[C@H](CCN)NC(=O)[C@@H](CC(C)C)NC(=O)[C@H](C)N(C)C(=O)[C@H](CCCNC(=N)N)NC(=O)[C@H](Cc2ccc(-c3ccccc3)cc2)NC(=O)[C@H](C(C)C)NC(=O)[C@H](Cc2c[nH]c3ccccc23)NC(=O)[C@H](CC(=O)O)NC(=O)[C@H](Cc2ccc(OCC(=O)O)cc2)NC(=O)[C@H](Cc2cnc[nH]2)NC(=O)CSC[C@@H](C(=O)N[C@@H](C)C(N)=O)NC(=O)[C@H]([C@@H](C)O)NC(=O)[C@H](C(C)C)NC1=O [Compound 1150] ({CH2CO}-HY(Carboxymethyl)DWV[Bip]R[NMeA][dL][Dab]LVTCA-NH2; thioether N-14),0.05 µM

# Now those with a lower IC50, led by results:
row,IC50,SMILES
1,0.03 µM,CC(C)C[C@@H]1NC(=O)[C@H](CCCN)NC(=O)[C@@H](CC(C)C)NC(=O)[C@H](C)N(C)C(=O)[C@H](CCCNC(=N)N)NC(=O)[C@H](Cc2ccc(-c3ccccc3)cc2)NC(=O)[C@H](C(C)C)NC(=O)[C@H](Cc2c[nH]c3ccccc23)NC(=O)[C@H](CC(=O)O)NC(=O)[C@H](Cc2ccc(OCC(=O)O)cc2)NC(=O)[C@H](Cc2ccccc2)NC(=O)CSC[C@@H](C(=O)N[C@@H](C)C(N)=O)NC(=O)[C@H]([C@@H](C)O)NC(=O)[C@H](C(C)C)NC1=O [Compound 1140] ({CH2CO}-FY(Carboxymethyl)DWV[Bip]R[NMeA][dL][Orn]LVTCA-NH2; thioether N-14)
2,0.04 µM,CC(C)C[C@@H]1NC(=O)[C@H](CCCNC(=N)N)NC(=O)[C@@H](CC(C)C)NC(=O)[C@H](C)N(C)C(=O)[C@H](CCC(=O)O)NC(=O)[C@H](Cc2ccc(-c3ccccc3)cc2)NC(=O)[C@H](C(C)C)NC(=O)[C@H](Cc2c[nH]c3ccccc23)NC(=O)[C@H](CC(=O)O)NC(=O)[C@H](Cc2ccc(O)cc2)NC(=O)[C@H](Cc2ccccc2)NC(=O)CSC[C@@H](C(=O)N[C@@H](C)C(N)=O)NC(=O)[C@H]([C@@H](C)O)NC(=O)[C@H](C(C)C)NC1=O [Compound 1141] ({CH2CO}-FYDWV[Bip]E[NMeA][dL]RLVTCA-NH2; thioether N-14)
3,0.02 µM,CC(C)C[C@@H]1NC(=O)[C@H](CCN)NC(=O)[C@@H](CC(C)C)NC(=O)[C@H](C)N(C)C(=O)[C@H](CCCNC(=N)N)NC(=O)[C@H](Cc2ccc(-c3ccccc3)cc2)NC(=O)[C@H](C(C)C)NC(=O)[C@H](Cc2c[nH]c3ccccc23)NC(=O)[C@H](CC(=O)O)NC(=O)[C@H](Cc2ccc(O)c([N+](=O)[O-])c2)NC(=O)[C@H](Cc2ccccc2)NC(=O)CSC[C@@H](C(=O)N[C@@H](C)C(N)=O)NC(=O)[C@H]([C@@H](C)O)NC(=O)[C@H](C(C)C)NC1=O [Compound 1145] ({CH2CO}-F[Tyr(3-NO2)]DWV[Bip]R[NMeA][dL][Dab]LVTCA-NH2; thioether N-14)
4,0.02 µM,CC(C)C[C@@H]1NC(=O)[C@H](CCN)NC(=O)[C@@H](CC(C)C)NC(=O)[C@H](C)N(C)C(=O)[C@H](CCCNC(=N)N)NC(=O)[C@H](Cc2ccc(-c3ccccc3)cc2)NC(=O)[C@H](C(C)C)NC(=O)[C@H](Cc2c[nH]c3ccccc23)NC(=O)[C@H](CC(=O)O)NC(=O)[C@H](Cc2ccncc2)NC(=O)[C@H](Cc2cccnc2)NC(=O)CSC[C@@H](C(=O)N[C@@H](C)C(N)=O)NC(=O)[C@H]([C@@H](C)O)NC(=O)[C@H](C(C)C)NC1=O [Compound 1147] ({CH2CO}-[3Pal][4Pal]DWV[Bip]R[NMeA][dL][Dab]LVTCA-NH2; thioether N-14)
5,0.04 µM,CC(C)C[C@@H]1NC(=O)[C@H](CCN)NC(=O)[C@@H](CC(C)C)NC(=O)[C@H](C)N(C)C(=O)[C@H](CCCNC(=N)N)NC(=O)[C@H](Cc2ccc(-c3ccccc3)cc2)NC(=O)[C@H](C(C)C)NC(=O)[C@H](Cc2c[nH]c3ccccc23)NC(=O)[C@H](CC(=O)O)NC(=O)[C@H](Cc2ccc(C(=O)O)cc2)NC(=O)[C@H](Cc2cnc[nH]2)NC(=O)CSC[C@@H](C(=O)N[C@@H](C)C(N)=O)NC(=O)[C@H]([C@@H](C)O)NC(=O)[C@H](C(C)C)NC1=O [Compound 1151] ({CH2CO}-H[Phe(4-COOH)]DWV[Bip]R[NMeA][dL][Dab]LVTCA-NH2; thioether N-14)
